The target in test [1] is T1, human enzyme NAMPT (full length) (Homo sapiens, UniProt P43490).
T1 construct: human enzyme NAMPT (full length)
Kind of test: NMN fluorescence biochemical assay (stimulation of NMN synthesis by NAMPT). The settings on record: for EC50: concentration giving half-maximal activation, read-out: Enzymatic EC50; for Enzymatic Emax: fold change of maximal activation compared to DMSO. A digest of the protocol: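 Full-length human NAMPT (100 nM) was preincubated 15 min at 37 °C with compound in 50 mM Tris-HCl pH 7.5, 10 mM MgCl2, 2 mM DTT, then reacted 1 h at 37 °C with 50 μM NAM, 100 μM PRPP, 4 mM ATP (stated solution concentrations). NMN was derivatised with acetophenone/KOH then formic acid and read at Ex/Em 382/445 nm; EC50 and Emax (fold over DMSO) reported.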

Test [2] deals with endogenous NAMPT in U2OS cells. Kind of test: Cellular NAD+ modulation assay (NAD/NADH-Glo, U2OS cells). In kind it is cell-based. The settings on record: Homo sapiens; for maximal fold induction: read-out: Cellular Emax. A digest of the protocol:
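Endogenous NAMPT stimulation in U2OS cells treated with compound dilution series for 24 h at 37 °C. Cells lysed with DTAB base, acid-treated 15 min at 60 °C, neutralized, NAD+ read by NAD/NADH-Glo luminescence after 40 min at room temperature. EC50 and Emax (fold over DMSO) derived.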

The mark [3] stands for this setting: NMN fluorescence assay, purified human NAMPT 100 nM.
The mark [4] stands for this setting: 24 hours incubation, cellular NAD+.
Setting [5] is: NMN synthesis by purified human NAMPT (100 nM).
The mark [6] stands for this setting: 24 hours incubation with compound.

Where two headings read alike, the source gives them in different places. Some results are limits rather than exact numbers.

T1 sequence (P43490 whole entry): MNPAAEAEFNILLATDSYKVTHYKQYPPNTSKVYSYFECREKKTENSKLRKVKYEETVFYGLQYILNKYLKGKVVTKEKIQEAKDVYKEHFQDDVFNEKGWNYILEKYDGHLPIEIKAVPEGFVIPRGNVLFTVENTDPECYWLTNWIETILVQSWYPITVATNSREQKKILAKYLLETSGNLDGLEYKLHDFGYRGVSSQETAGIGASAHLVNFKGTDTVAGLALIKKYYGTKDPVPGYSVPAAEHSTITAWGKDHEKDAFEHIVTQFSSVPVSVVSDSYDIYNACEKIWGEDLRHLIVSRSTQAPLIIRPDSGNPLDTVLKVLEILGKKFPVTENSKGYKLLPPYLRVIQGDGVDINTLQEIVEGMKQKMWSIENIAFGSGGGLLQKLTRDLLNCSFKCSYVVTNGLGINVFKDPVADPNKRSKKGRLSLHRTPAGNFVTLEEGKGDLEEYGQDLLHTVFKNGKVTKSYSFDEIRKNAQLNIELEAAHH

For `CCn1ncc(Cl)c1CC1c2ccccc2C(=O)N1CC1CC2(CNC(=O)O2)C1` (stereo not drawn) [Compound 465, 2-((1-((4-chloro-1-ethyl-1H-pyrazol-5-yl)methyl)-3-oxoisoindolin-2-yl)methyl)-5-oxa-7-azaspiro[3.4]octan-6-one], the EC50 is 500 to 5000 nM in test [1] (setting [3]) and under 500 nM in test [2] (setting [4]). Moreover, the “Enzymatic Emax” value in test [1] is “B (3≥B>2)”. The maximal fold induction in test [2] (setting [4]) is over 1.5.

With `N#Cc1cncc(C#N)c1CC1c2ccccc2C(=O)N1CC1CC2(CNC(=O)O2)C1` (stereo not drawn) [Compound 459, 4-((3-oxo-2-((6-oxo-5-oxa-7-azaspiro[3.4]octan-2-yl)methyl)isoindolin-1-yl)methyl)pyridine-3,5-dicarbonitrile], the EC50 in test [1] (setting [3]) was 500 to 5000 nM; in test [2] (setting [4]), under 500 nM. The “Enzymatic Emax” value in test [1] is on record as “A (A>3)”. Also, the maximal fold induction in test [2] (setting [4]) was over 1.5.

As for `N#Cc1ccnc(C#N)c1CC1c2ccccc2C(=O)N1Cc1ccc2[nH]nnc2c1` (stereo not drawn) [Compound 353, 3-((2-((1H-benzo[d][1,2,3]triazol-5-yl)methyl)-3-oxoisoindolin-1-yl)methyl)pyridine-2,4-dicarbonitrile], the EC50 in test [1] (setting [3]) was under 500 nM. For the same compound, the “Enzymatic Emax” value in test [1] is reported as “A (A>3)”. In test [2] (setting [4]), the EC50 is under 500 nM and the maximal fold induction was over 1.5.

Take `COc1ccc(CN2C(=O)c3ccc(C4CC4)cc3C2Cc2c(Cl)cnn2C)cn1` (stereo not drawn) [Compound 623, 3-((4-chloro-1-methyl-1H-pyrazol-5-yl)methyl)-5-cyclopropyl-2-((6-methoxypyridin-3-yl)methyl)isoindolin-1-one]: the EC50 in test [1] (setting [3]) is at least 5000 nM; in test [2] (setting [4]), 500 to 5000 nM. The “Enzymatic Emax” value in test [1] is “A (A>3)”. The maximal fold induction in test [2] (setting [4]) was over 1.5.

As to `CC1c2cc(NC3CCCC3)ccc2C(=O)N1Cc1ccc2[nH]c(=O)oc2c1` (stereo not drawn) [Compound 81, 6-((5-(cyclopentylamino)-3-methyl-1-oxoisoindolin-2-yl)methyl)benzo[d]oxazol-2(3H)-one], the EC50 in test [1] (setting [5]) is at least 5000 nM. In addition, the “Enzymatic Emax” value in test [1] was “A (A>3)”. In test [2] (setting [6]), the EC50 was 500 to 5000 nM and the maximal fold induction was in the range of 1.2 to 1.5.

In the case of `Cn1ncc(Cl)c1CC1c2cc(Cl)cc(F)c2C2(CC2)N1CC1CC2(CNC(=O)O2)C1` (stereo not drawn) [Compound 580, 2-((5′-chloro-3′-((4-chloro-1-methyl-1H-pyrazol-5-yl)methyl)-7′-fluorospiro[cyclopropane-1,1′-isoindolin]-2′-yl)methyl)-5-oxa-7-azaspiro[3.4]octan-6-one], in test [1] (setting [3]), the EC50 is 500 to 5000 nM. The “Enzymatic Emax” value in test [1] is on record as “A (A>3)”. Moreover, in test [2] (setting [4]), the EC50 was in the range of 500 to 5000 nM and the maximal fold induction was in the range of 1.2 to 1.5.

For the compound `CN1C[C@]2(C[C@H](CN3C(=O)c4ccccc4[C@@H]3Cc3c(Cl)cnn3C)C2)OC1=O` [Compound 551, (2s,4R)-2-(((S)-1-((4-chloro-1-methyl-1H-pyrazol-5-yl)methyl)-3-oxoisoindolin-2-yl)methyl)-7-methyl-5-oxa-7-azaspiro[3.4]octan-6-one], the EC50 in test [1] (setting [3]) lay in the range of 500 to 5000 nM. Besides, the “Enzymatic Emax” value in test [1] is listed as “B (3≥B>2)”. In test [2] (setting [4]), the EC50 is under 500 nM and the maximal fold induction was over 1.5.

With `Cn1ncc(Cl)c1CC1c2cc(C3COC3)ccc2C(=O)N1Cc1ccc2[nH]nnc2c1` (stereo not drawn) [Compound 370, 2-((1H-benzo[d][1,2,3]triazol-5-yl)methyl)-3-((4-chloro-1-methyl-1H-pyrazol-5-yl)methyl)-5-(oxetan-3-yl)isoindolin-1-one], the EC50 in test [1] (setting [3]) and in test [2] (setting [4]) was under 500 nM each time. For the same compound, the “Enzymatic Emax” value in test [1] is on record as “B (3≥B>2)”. Also, the maximal fold induction in test [2] (setting [4]) is over 1.5.

For `Cn1ncc(Cl)c1CC1c2cc(C#N)ccc2C(=O)N1Cc1ccc2[nH]nnc2c1` (stereo not drawn) [Compound 327, 2-((1H-benzo[d][1,2,3]triazol-5-yl)methyl)-3-((4-chloro-1-methyl-1H-pyrazol-5-yl)methyl)-1-oxoisoindoline-5-carbonitrile], the EC50 in test [1] (setting [3]) was in the range of 500 to 5000 nM. In addition, the “Enzymatic Emax” value in test [1] was “A (A>3)”. In test [2] (setting [4]), the EC50 was under 500 nM and the maximal fold induction fell in the range of 1.2 to 1.5.

For the compound `Cn1ncc(Cl)c1C[C@H]1c2ccccc2C(=O)N1C/C=C/c1c[nH]nn1` [Compound 312, (S,E)-2-(3-(1H-1,2,3-triazol-4-yl)allyl)-3-((4-chloro-1-methyl-1H-pyrazol-5-yl)methyl) isoindolin-1-one], the EC50 in test [1] (setting [5]) and in test [2] (setting [6]) was under 500 nM in each case. Further, the “Enzymatic Emax” value in test [1] was “B (3≥B>2)”. In addition, the maximal fold induction in test [2] (setting [6]) was over 1.5.

Regarding `Cc1ccc2c(c1)C(C)N(Cc1ccc3[nH]c(=O)oc3c1)C2=O` (single isomer, unassigned) [Compound 163], the concentration for a half-maximal effect (EC50) in test [1] (setting [5]) was at least 5000 nM. Further, the “Enzymatic Emax” value in test [1] is “A (A>3)”. In test [2] (setting [6]), the EC50 is 500 to 5000 nM and the maximal fold induction was over 1.5.

Regarding `COc1ccc(CN2C(=O)c3ccc(Cl)cc3C2Cc2c(C)ncnc2C#N)cn1` (stereo not drawn) [Compound 639, 5-((6-chloro-2-((6-methoxypyridin-3-yl)methyl)-3-oxoisoindolin-1-yl)methyl)-6-methylpyrimidine-4-carbonitrile], the EC50 in test [1] (setting [3]) was at least 5000 nM. The “Enzymatic Emax” value in test [1] is recorded as “B (3≥B>2)”. Moreover, in test [2] (setting [4]), the EC50 lay in the range of 500 to 5000 nM and the maximal fold induction fell in the range of 1.2 to 1.5.

For the compound `Cc1nn(C)c(CC2c3ccccc3C(=O)N2Cc2ccc3[nH]nnc3c2)c1Cl` (stereo not drawn) [Compound 337, 2-((1H-benzo[d][1,2,3]triazol-5-yl)methyl)-3-((4-chloro-1,3-dimethyl-1H-pyrazol-5-yl)methyl)isoindolin-1-one], the EC50 in test [1] (setting [3]) and in test [2] (setting [4]) was under 500 nM in each case. Besides, the “Enzymatic Emax” value in test [1] is listed as “A (A>3)”. For the same compound, the maximal fold induction in test [2] (setting [4]) is over 1.5.

As for `Cn1ncc(Cl)c1CC1c2ccc(F)cc2C(=O)N1CC1CC2(CNC(=O)O2)C1` (stereo not drawn) [Compound 310, 2-((1-((4-chloro-1-methyl-1H-pyrazol-5-yl)methyl)-5-fluoro-3-oxoisoindolin-2-yl)methyl)-5-oxa-7-azaspiro[3.4]octan-6-one], the EC50 in test [1] (setting [5]) is 500 to 5000 nM; in test [2] (setting [6]) it was under 500 nM. In test [1], the “Enzymatic Emax” value is given as “B (3≥B>2)”. Moreover, the maximal fold induction in test [2] (setting [6]) was over 1.5.

Regarding `O=C1c2ccccc2C(c2ccccc2)N1Cc1ccc2[nH]c(=O)oc2c1` (stereo not drawn) [Compound 67, 6-((1-oxo-3-phenylisoindolin-2-yl)methyl)benzo[d]oxazol-2(3H)-one], in test [1] (setting [5]), the EC50 was at least 5000 nM. In addition, in test [1], the “Enzymatic Emax” value was “B (3≥B>2)”. In addition, in test [2] (setting [6]), the EC50 is 5000 to 50000 nM and the maximal fold induction was 1.2 to 1.5.

As for `Cn1c(CC2c3ccccc3C(=O)N2CC2CC3(CNC(=O)O3)C2)c(Cl)ccc1=O` (stereo not drawn) [Compound 467, 2-((1-((3-chloro-1-methyl-6-oxo-1,6-dihydropyridin-2-yl)methyl)-3-oxoisoindolin-2-yl)methyl)-5-oxa-7-azaspiro[3.4]octan-6-one], in test [1] (setting [3]), the EC50 is under 500 nM. Further, the “Enzymatic Emax” value in test [1] is “B (3≥B>2)”. Besides, in test [2] (setting [4]), the 50% effective concentration (EC50) is under 500 nM and the maximal fold induction was over 1.5.

In the case of `Cn1ncc(Cl)c1CC1c2cc(CC3COC3)ccc2C(=O)N1Cc1ccc2[nH]nnc2c1` (stereo not drawn) [Compound 394, 2-((1H-benzo[d][1,2,3]triazol-5-yl)methyl)-3-((4-chloro-1-methyl-1H-pyrazol-5-yl)methyl)-5-(oxetan-3-ylmethyl)isoindolin-1-one], the EC50 in test [1] (setting [3]) is under 500 nM. In addition, the “Enzymatic Emax” value in test [1] is recorded as “B (3≥B>2)”. Further, in test [2] (setting [4]), the EC50 lay within 500 to 5000 nM and the maximal fold induction is over 1.5.

For the compound `Cc1cccc2c1CN(Cc1ccc(O)cc1)C2=O` [Compound 34, 2-(4-hydroxybenzyl)-4-methylisoindolin-1-one], the concentration for a half-maximal effect (EC50) in test [1] (setting [5]) and in test [2] (setting [6]) was 500 to 5000 nM throughout. The “Enzymatic Emax” value in test [1] is “B (3≥B>2)”. For the same compound, the maximal fold induction in test [2] (setting [6]) was 1.2 to 1.5.

As to `Cn1ncc(Cl)c1CC1c2ccccc2C(C)(C)N1CC1CC(C(N)=O)C1` (stereo not drawn) [Compound 607, 3-((3-((4-chloro-1-methyl-1H-pyrazol-5-yl)methyl)-1,1-dimethylisoindolin-2-yl)methyl)cyclobutane-1-carboxamide], the EC50 in test [1] (setting [3]) is at least 5000 nM; in test [2] (setting [4]) it was 5000 to 50000 nM. In addition, the “Enzymatic Emax” value in test [1] is given as “C (2≥C)”. Besides, the maximal fold induction in test [2] (setting [4]) was in the range of 1.2 to 1.5.

Regarding `Cn1nc(CN2CCOCC2)c(Cl)c1CC1c2ccccc2C(=O)N1CC1CC2(CNC(=O)O2)C1` (stereo not drawn) [Compound 522, 2-((1-((4-chloro-1-methyl-3-(morpholinomethyl)-1H-pyrazol-5-yl)methyl)-3-oxoisoindolin-2-yl)methyl)-5-oxa-7-azaspiro[3.4]octan-6-one], the EC50 in test [1] (setting [3]) was 500 to 5000 nM. Moreover, the “Enzymatic Emax” value in test [1] was “B (3≥B>2)”. In addition, in test [2] (setting [4]), the EC50 was in the range of 500 to 5000 nM and the maximal fold induction is over 1.5.

With `CCC1c2ccccc2C(=O)N1Cc1ccc2[nH]c(=O)oc2c1` (stereo not drawn) [Compound 53, 6-((1-ethyl-3-oxoisoindolin-2-yl)methyl) benzo[d]oxazol-2(3H)-one], the values for the EC50 in test [1] (setting [5]) and in test [2] (setting [6]) were at least 5000 nM and 5000 to 50000 nM, respectively. Also, in test [1], the “Enzymatic Emax” value was “B (3≥B>2)”. Further, the maximal fold induction in test [2] (setting [6]) lay within 1.2 to 1.5.

By EC50 is commonly meant the concentration giving half of the maximal effect.
